Data reported in patent publication US9879043B1, “Synthesis of non-natural cofactor analogs of S-adenosyl-L-methionine using methionine adenosyltransferase” (University of Kentucky Research Foundation, priority 2013, dated 2018).

molecular target: human MAT II catalytic alpha subunit alone (hMAT2A) (Homo sapiens, UniProt P31153); test: MAT assay, turnover of S/Se-Met analogs to S(Se)AM analogs (RP-HPLC end point); assay type: biochemical; settings: 2 mM Met analog, 1 mM ATP, 5 μM MAT, pH 8, 4 h, 37° C.; average of two assays
Experimental: (§1) Standard uniform assay conditions (2 mM Met analog, 1 mM ATP, 5 μM MAT, 25 mM Tris, 5 mM MgCl2, 50 mM KCl, pH 8, 4 h) were adopted to facilitate this broad assessment. For the thermophilic counterpart (mMAT), reactions were conducted at 65° C., while all other reactions were incubated at 37° C. Production of SAM analogs was determined by an RP-HPLC end point assay to afford complete analysis of the desired SAM analog and/or any corresponding degradation products known to directly derive from the desired SAM analog intermediate.
(§2) To monitor MAT reactions, analytical RP HPLC employed a Luna C18 column (5 μm, 4.6 mm×250 mm; Phenomenex, Torrance, Calif., USA) [gradient of 10% B to 40% B over 15 min, 40% B to 75% B over 5 min (A=10 mM NaH2PO4, 5 mM octane sulfonic acid, pH was adjusted to 3.5 using phosphoric acid; B=acetonitrile) flow rate=1 mL min^−1; A254].
(§3) The sMAT and mMAT reactions were conducted at 65° C. while hMATs and eMAT were incubated at 37° C. Reactions were quenched by adding an equal volume of methanol followed by centrifugation (10,000×g for 15 min) to remove the precipitated protein and product formation for each reaction was subsequently analyzed by RP-HPLC using Method D (FIG. 15, first column). For each reaction, percent yield was based upon the integration of species at 254 nm and calculated by dividing the integrated area of product and/or decomposed product by the sum of integrated area of product and/or decomposed product and the remaining substrate. The assays were repeated twice under identical conditions, and Table 2 (and FIG. 5) represents an average value of two assays. The inclusion of adenine and 5′-R-thio-5′-adenosine in these calculations is based upon the established SAM and ATP chemical decomposition pathways which indicate adenine and 5′-R-thio-5′-adenosine to only derive from SAM (not ATP). All putative products were subsequently confirmed by high resolution electrospray ionization (ESI) mass spectra with positive (+) and/or negative (−) mode.

Row | SMILES | Percentage Turn-over hMAT2A [%]
1 | C[Se]CC[C@H](N)C(=O)O [2-Se, L-selenomethionine, reference compound] | 100
2 | CSCC[C@H](N)C(=O)O [compound 2, L-methionine] | 100
3 | CC[Se]CC[C@H](N)C(=O)O [compound 3-Se, (2S)-2-amino-4-(ethylselanyl)butanoic acid] | 53
4 | C#CCSCC[C@H](N)C(=O)O [compound 4, (2S)-2-amino-4-(prop-2-yn-1-ylsulfanyl)butanoic acid] | 6
5 | C#CC[Se]CC[C@H](N)C(=O)O [compound 4-Se, (2S)-2-amino-4-(prop-2-yn-1-ylselanyl)butanoic acid] | 44
6 | N#CCSCC[C@H](N)C(=O)O [compound 6, (2S)-2-amino-4-[(cyanomethyl)sulfanyl]butanoic acid] | 13
7 | N#CC[Se]CC[C@H](N)C(=O)O [compound 6-Se, (2S)-2-amino-4-[(cyanomethyl)selanyl]butanoic acid] | 23
8 | C=CCSCC[C@H](N)C(=O)O [compound 7, (2S)-2-amino-4-(prop-2-en-1-ylsulfanyl)butanoic acid] | 50
9 | C=CC[Se]CC[C@H](N)C(=O)O [compound 7-Se, (2S)-2-amino-4-(prop-2-en-1-ylselanyl)butanoic acid] | 42
10 | CCC[Se]CC[C@H](N)C(=O)O [compound 8-Se, (2S)-2-amino-4-(propylselanyl)butanoic acid] | 24
11 | CC(C)[Se]CC[C@H](N)C(=O)O [compound 9-Se, (2S)-2-amino-4-(propan-2-ylselanyl)butanoic acid] | 11
12 | C#CCC[Se]CC[C@H](N)C(=O)O [compound 10-Se, (2S)-2-amino-4-(but-3-yn-1-ylselanyl)butanoic acid] | 22
13 | C=C(C)C[Se]CC[C@H](N)C(=O)O [compound 12-Se, (2S)-2-amino-4-[(2-methylprop-2-en-1-yl)selanyl]butanoic acid] | 11
14 | CCCC[Se]CC[C@H](N)C(=O)O [compound 13-Se, (2S)-2-amino-4-(butylselanyl)butanoic acid] | 26
15 | CC(C)=CC[Se]CC[C@H](N)C(=O)O [compound 19-Se, (2S)-2-amino-4-[(3-methylbut-2-en-1-yl)selanyl]butanoic acid] | 9
16 | [N-]=[N+]=NC/C=C/C[Se]CC[C@H](N)C(=O)O [compound 23-Se, (2S)-2-amino-4-{[(2E)-4-azidobut-2-en-1-yl]selanyl}butanoic acid] | 9
17 | NC/C=C/C[Se]CC[C@H](N)C(=O)O [compound 24-Se, (2S)-2-amino-4-{[(2E)-4-aminobut-2-en-1-yl]selanyl}butanoic acid] | 16

molecular target: human MAT I catalytic subunit alpha (hMAT1A) (Homo sapiens, UniProt Q00266); test: as above; assay type: biochemical; settings: 2 mM Met analog, 1 mM ATP, 5 μM MAT, pH 8, 4 h, 37° C.; average of two assays
Experimental: as §1, §2, §3

Row | SMILES | Percentage Turn-over hMAT1A [%]
18 | C#CCSCC[C@H](N)C(=O)O [compound 4, (2S)-2-amino-4-(prop-2-yn-1-ylsulfanyl)butanoic acid] | 2
19 | N#CCSCC[C@H](N)C(=O)O [compound 6, (2S)-2-amino-4-[(cyanomethyl)sulfanyl]butanoic acid] | 2
20 | C=CCSCC[C@H](N)C(=O)O [compound 7, (2S)-2-amino-4-(prop-2-en-1-ylsulfanyl)butanoic acid] | 5

molecular target: human MAT II catalytic alpha and regulatory beta subunit (hMAT2) (Homo sapiens, UniProt P31153); test: as above; assay type: biochemical; settings: 2 mM Met analog, 1 mM ATP, 5 μM MAT, pH 8, 4 h, 37° C.; average of two assays
Experimental: as §1, §2, §3

Row | SMILES | Percentage Turn-over hMAT2 [%]
21 | C[Se]CC[C@H](N)C(=O)O [2-Se, L-selenomethionine, reference compound] | 100
22 | CSCC[C@H](N)C(=O)O [compound 2, L-methionine] | 100
23 | CC[Se]CC[C@H](N)C(=O)O [compound 3-Se, (2S)-2-amino-4-(ethylselanyl)butanoic acid] | 82
24 | C#CCSCC[C@H](N)C(=O)O [compound 4, (2S)-2-amino-4-(prop-2-yn-1-ylsulfanyl)butanoic acid] | 20
25 | C#CC[Se]CC[C@H](N)C(=O)O [compound 4-Se, (2S)-2-amino-4-(prop-2-yn-1-ylselanyl)butanoic acid] | 58
26 | N#CCSCC[C@H](N)C(=O)O [compound 6, (2S)-2-amino-4-[(cyanomethyl)sulfanyl]butanoic acid] | 20
27 | N#CC[Se]CC[C@H](N)C(=O)O [compound 6-Se, (2S)-2-amino-4-[(cyanomethyl)selanyl]butanoic acid] | 33
28 | C=CCSCC[C@H](N)C(=O)O [compound 7, (2S)-2-amino-4-(prop-2-en-1-ylsulfanyl)butanoic acid] | 52
29 | C=CC[Se]CC[C@H](N)C(=O)O [compound 7-Se, (2S)-2-amino-4-(prop-2-en-1-ylselanyl)butanoic acid] | 59
30 | CCC[Se]CC[C@H](N)C(=O)O [compound 8-Se, (2S)-2-amino-4-(propylselanyl)butanoic acid] | 74
31 | CC(C)[Se]CC[C@H](N)C(=O)O [compound 9-Se, (2S)-2-amino-4-(propan-2-ylselanyl)butanoic acid] | 10
32 | C#CCC[Se]CC[C@H](N)C(=O)O [compound 10-Se, (2S)-2-amino-4-(but-3-yn-1-ylselanyl)butanoic acid] | 55
33 | C=C(C)C[Se]CC[C@H](N)C(=O)O [compound 12-Se, (2S)-2-amino-4-[(2-methylprop-2-en-1-yl)selanyl]butanoic acid] | 12
34 | CCCC[Se]CC[C@H](N)C(=O)O [compound 13-Se, (2S)-2-amino-4-(butylselanyl)butanoic acid] | 49
35 | CC(C)=CC[Se]CC[C@H](N)C(=O)O [compound 19-Se, (2S)-2-amino-4-[(3-methylbut-2-en-1-yl)selanyl]butanoic acid] | 15
36 | [N-]=[N+]=NC/C=C/C[Se]CC[C@H](N)C(=O)O [compound 23-Se, (2S)-2-amino-4-{[(2E)-4-azidobut-2-en-1-yl]selanyl}butanoic acid] | 15
37 | NC/C=C/C[Se]CC[C@H](N)C(=O)O [compound 24-Se, (2S)-2-amino-4-{[(2E)-4-aminobut-2-en-1-yl]selanyl}butanoic acid] | 25

molecular target: T1, Methanocaldococcus jannaschii MAT (mMAT) (Methanocaldococcus jannaschii, UniProt Q58605); test: not given; assay type: biochemical; settings: 2 mM Met analog, 1 mM ATP, 5 μM MAT, pH 8, 4 h, 65° C.; average of two assays
T1 sequence (Q58605 1-406): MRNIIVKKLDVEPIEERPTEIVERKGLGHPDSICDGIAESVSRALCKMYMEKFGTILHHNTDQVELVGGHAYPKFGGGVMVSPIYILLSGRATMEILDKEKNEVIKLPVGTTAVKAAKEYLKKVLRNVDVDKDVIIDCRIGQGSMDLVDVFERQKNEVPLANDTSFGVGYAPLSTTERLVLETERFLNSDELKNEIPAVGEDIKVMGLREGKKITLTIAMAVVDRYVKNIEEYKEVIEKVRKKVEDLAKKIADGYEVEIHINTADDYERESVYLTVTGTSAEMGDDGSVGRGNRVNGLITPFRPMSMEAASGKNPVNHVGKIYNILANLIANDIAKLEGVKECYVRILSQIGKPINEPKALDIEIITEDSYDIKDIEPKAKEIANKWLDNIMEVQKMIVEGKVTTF
Experimental: as §1, §2, §3

Row | SMILES | Percentage Turn-over mMAT [%]
38 | C#CCSCC[C@H](N)C(=O)O [compound 4, (2S)-2-amino-4-(prop-2-yn-1-ylsulfanyl)butanoic acid] | 6
39 | N#CCSCC[C@H](N)C(=O)O [compound 6, (2S)-2-amino-4-[(cyanomethyl)sulfanyl]butanoic acid] | 6
40 | C=CCSCC[C@H](N)C(=O)O [compound 7, (2S)-2-amino-4-(prop-2-en-1-ylsulfanyl)butanoic acid] | 16

molecular target: T2, Sulfolobus solfataricus MAT (sMAT) (Saccharolobus solfataricus, UniProt Q980S9); test: not given; assay type: biochemical; settings: 2 mM analog, 1 mM ATP, 5 μM sMAT, pH 8.0, 4 h at 65° C.; average of two assays
T2 sequence (Q980S9 1-404): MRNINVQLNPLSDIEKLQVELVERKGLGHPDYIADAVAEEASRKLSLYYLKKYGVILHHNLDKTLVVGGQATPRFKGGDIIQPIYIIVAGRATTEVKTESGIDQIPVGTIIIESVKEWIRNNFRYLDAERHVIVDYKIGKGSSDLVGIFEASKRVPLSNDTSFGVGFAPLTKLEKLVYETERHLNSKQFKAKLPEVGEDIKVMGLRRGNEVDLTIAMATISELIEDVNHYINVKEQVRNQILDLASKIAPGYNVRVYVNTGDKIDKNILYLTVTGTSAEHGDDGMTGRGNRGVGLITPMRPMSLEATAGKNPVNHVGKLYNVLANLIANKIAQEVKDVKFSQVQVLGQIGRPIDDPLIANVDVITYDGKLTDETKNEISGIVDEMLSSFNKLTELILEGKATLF
Experimental: In-vitro sMAT assay: In vitro sMAT reactions were conducted in a volume of 50 μl with 2 mM S/Se-alkylated analog, 1 mM ATP and 5 μM purified sMAT in 25 mM Tris buffer pH 8.0, 5 mM MgCl2, 50 mM KCl for 4 h at 65° C. Reactions were quenched by adding an equal volume of methanol followed by centrifugation (10,000×g for 15 min) to remove the precipitated protein and product formation for each reaction was subsequently analyzed by reverse phase HPLC (RP-HPLC) using method described below. For each reaction, percent yield was based upon the integration of species at 254 nm and calculated by dividing the integrated area of product and/or decomposed product by the sum of integrated area of product and/or decomposed product and the remaining substrate. The assays were repeated twice under identical conditions, and Table 4 (and FIG. 17) represents an average value of two assays. The inclusion of adenine and 5′-R-thio-5′-adenosine in these calculations is based upon the established SAM and ATP chemical decomposition pathways which indicate adenine and 5′-R-thio-5′-adenosine to only derive from SAM (not ATP). All putative products were subsequently confirmed by high resolution electrospray ionization (ESI) mass spectra with positive (+) and/or negative (−) mode.
RP-HPLC method: Reactions were quenched by the addition of equal volume of methanol followed by centrifugation at 10,000 g for 15 min to remove precipitated protein before applying on an analytical Varian ProStar HPLC [Luna C18 column, 5 μm, 4.6 mm×250 mm; Phenomenex, Torrance, Calif., USA; gradient of 10% B to 40% B over 15 min, 40% B to 75% B over 5 min (A=10 mM NaH2PO4, 5 mM octane sulfonic acid, pH was adjusted to 3.5 using phosphoric acid; B=acetonitrile) flow rate=1 mL min^−1; A254].

Row | SMILES | Percentage Turn-Over (sMAT) [%]
41 | C#CCSCC[C@H](N)C(=O)O [compound 4, (2S)-2-amino-4-(prop-2-yn-1-ylsulfanyl)butanoic acid] | 36
42 | N#CCSCC[C@H](N)C(=O)O [compound 6, (2S)-2-amino-4-[(cyanomethyl)sulfanyl]butanoic acid] | 68
43 | C=CCSCC[C@H](N)C(=O)O [compound 7, (2S)-2-amino-4-(prop-2-en-1-ylsulfanyl)butanoic acid] | 27

molecular target: Escherichia coli MAT (eMAT) (Escherichia coli, UniProt P0A817); test: MAT assay, turnover of S/Se-Met analogs to S(Se)AM analogs (RP-HPLC end point); assay type: biochemical; settings: 2 mM Met analog, 1 mM ATP, 5 μM MAT, pH 8, 4 h, 37° C.; average of two assays
Experimental: as §1, with “intermediate. Putative SAM analog and SAM-derived degradative product formation was subsequently confirmed via high-resolution mass spectrometry (HRMS) analysis for all positive reactions (see Table 2).” for “intermediate.”
as §2
as §3, with “In vitro MAT reactions were conducted in a volume of 50 μl with 2 mM S/Se-alkylated analog (compounds 2-30), 1 mM ATP and 5 μM purified MAT in 25 mM Tris buffer pH 8.0, 5 mM MgCl2, 50 mM KCl for 4 h. The sMAT” for “The sMAT”

Row | SMILES | Percentage Turn-over eMAT [%]
44 | C#CCSCC[C@H](N)C(=O)O [compound 4, (2S)-2-amino-4-(prop-2-yn-1-ylsulfanyl)butanoic acid] | 2
45 | N#CCSCC[C@H](N)C(=O)O [compound 6, (2S)-2-amino-4-[(cyanomethyl)sulfanyl]butanoic acid] | 2
46 | C=CCSCC[C@H](N)C(=O)O [compound 7, (2S)-2-amino-4-(prop-2-en-1-ylsulfanyl)butanoic acid] | 2
